Where two headings read alike, the source gives them in different places.
Tested on: human umbilical vein endothelial cells (HUVEC)
Experiment: HUVEC proliferation assay
Type: cell-based
Conditions: Homo sapiens, HUVEC; for inhibition at 0.001 µM: 1 nM; for inhibition at 0.01 µM: 10 nM, read-out: % inhibition @ 10 nM
How it was run: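 Readout was MTT dye reduction (A595) after 72 h of stimulation with VEGF at 6 ng/ml final. Compound, in 0.1% DMSO final, was added 1 h before VEGF to HUVEC starved 24 h in 1% FBS. % inhibition was scaled between VEGF-alone and unstimulated wells; IC50 was fitted from triplicate dose curves.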

[1] = Table II screening results, crude combinatorial amide library
[2] = table following Table II (untitled), crude combinatorial library

CNC(=O)Nc1nc(N)c(-c2nc(-c3cccc(NC(=O)c4cc(=O)[nH]c(=O)[nH]4)c3)cs2)s1
inhibition at 0.001 µM [1]: -5% | inhibition at 0.01 µM [1]: -14%

CNC(=O)Nc1nc(N)c(-c2nc(-c3cccc(NC(=O)C4CCCO4)c3)cs2)s1 (stereo not drawn)
inhibition at 0.001 µM [1]: 183% | inhibition at 0.01 µM [1]: -33%

CNC(=O)Nc1nc(N)c(-c2nc(-c3cccc(NC(=O)Cc4sc(S)nc4C)c3)cs2)s1
inhibition at 0.001 µM [1]: 18% | inhibition at 0.01 µM [1]: -25%

CNC(=O)Nc1nc(N)c(-c2nc(-c3cccc(NC(=O)c4cc(C)n(O)n4)c3)cs2)s1
inhibition at 0.001 µM [1]: -2% | inhibition at 0.01 µM [1]: 13%

CNC(=O)Nc1nc(N)c(-c2nc(-c3cccc(NC(=O)C4CC(=O)OC4(C)C)c3)cs2)s1 (stereo not drawn)
inhibition at 0.001 µM [1]: 2% | inhibition at 0.01 µM [1]: -10%

CNC(=O)Nc1nc(N)c(-c2nc(-c3cccc(NC(=O)c4cc(C)n[nH]4)c3)cs2)s1
inhibition at 0.001 µM [1]: 32% | inhibition at 0.01 µM [1]: -22%

CNC(=O)Nc1nc(N)c(-c2nc(-c3cccc(NC(=O)c4cc(C)nn4C)c3)cs2)s1
inhibition at 0.001 µM [1]: 10% | inhibition at 0.01 µM [1]: 39%

CNC(=O)Nc1nc(N)c(-c2nc(-c3cccc(NC(=O)c4cc(C)[nH]c4C)c3)cs2)s1
inhibition at 0.001 µM [1]: 25% | inhibition at 0.01 µM [1]: -13%

CNC(=O)Nc1nc(N)c(-c2nc(-c3cccc(NC(=O)c4cccc5cc[nH]c45)c3)cs2)s1
inhibition at 0.001 µM [1]: -11% | inhibition at 0.01 µM [1]: 60%

C/C=C(\C)C(=O)Nc1cccc(-c2csc(-c3sc(NC(=O)NC)nc3N)n2)c1
inhibition at 0.001 µM [1]: 5% | inhibition at 0.01 µM [1]: 17%

CNC(=O)Nc1nc(N)c(-c2nc(-c3cccc(NC(=O)c4cc(=O)cco4)c3)cs2)s1
inhibition at 0.001 µM [1]: 47% | inhibition at 0.01 µM [1]: 27%

CCCN(CCC)CC(=O)Nc1cccc(-c2csc(-c3sc(NC(=O)NC)nc3N)n2)c1
inhibition at 0.001 µM [1]: 10% | inhibition at 0.01 µM [1]: 0%

CC/C=C(\C)C(=O)Nc1cccc(-c2csc(-c3sc(NC(=O)NC)nc3N)n2)c1
inhibition at 0.001 µM [1]: -12% | inhibition at 0.01 µM [1]: 67%

CNC(=O)Nc1nc(N)c(-c2nc(-c3cccc(NC(=O)Cc4c(F)cccc4F)c3)cs2)s1
inhibition at 0.001 µM [1]: -3% | inhibition at 0.01 µM [1]: -2%

CNC(=O)Nc1nc(N)c(-c2nc(-c3cccc(NC(=O)C4C(C)(C)C4(C)C)c3)cs2)s1
inhibition at 0.001 µM [1]: 11% | inhibition at 0.01 µM [1]: 21%

CCNc1ccccc1C(=O)Nc1cccc(-c2csc(-c3sc(NC(=O)NC)nc3N)n2)c1
inhibition at 0.001 µM [1]: -1% | inhibition at 0.01 µM [1]: 29%

COc1cc(Nc2nc(N)c(-c3nc(-c4cc(NC(=O)CC5CCC6CCC5C6)ccc4C)no3)s2)cc(OC)c1OC (stereo not drawn)
inhibition at 0.001 µM [2]: -7% | inhibition at 0.01 µM [2]: 47%

COc1cc(Nc2nc(N)c(-c3nc(-c4cc(NC(=O)CCN5CCCCC5)ccc4C)no3)s2)cc(OC)c1OC
inhibition at 0.001 µM [2]: 3% | inhibition at 0.01 µM [2]: 28%

COc1cc(Nc2nc(N)c(-c3nc(-c4cc(NC(=O)C(C)C)ccc4C)no3)s2)cc(OC)c1OC
inhibition at 0.001 µM [2]: 6% | inhibition at 0.01 µM [2]: 1%

COc1cc(Nc2nc(N)c(-c3nc(-c4cc(NC(=O)C(O)CC(C)C)ccc4C)no3)s2)cc(OC)c1OC (stereo not drawn)
inhibition at 0.001 µM [2]: 5% | inhibition at 0.01 µM [2]: 69%

COc1cc(Nc2nc(N)c(-c3nc(-c4cc(NC(=O)CCC(=O)N5CCCC5)ccc4C)no3)s2)cc(OC)c1OC
inhibition at 0.001 µM [2]: -18% | inhibition at 0.01 µM [2]: -20%

CCc1ccccc1C(=O)Nc1ccc(C)c(-c2noc(-c3sc(Nc4cc(OC)c(OC)c(OC)c4)nc3N)n2)c1
inhibition at 0.001 µM [2]: -26% | inhibition at 0.01 µM [2]: 59%

COc1cc(Nc2nc(N)c(-c3nc(-c4cc(NC(=O)C5=CCCN(C)C5)ccc4C)no3)s2)cc(OC)c1OC
inhibition at 0.001 µM [2]: 5% | inhibition at 0.01 µM [2]: 1%

COc1cc(Nc2nc(N)c(-c3nc(-c4cc(NC(=O)C5CCCN5C(C)=O)ccc4C)no3)s2)cc(OC)c1OC (stereo not drawn)
inhibition at 0.001 µM [2]: -13% | inhibition at 0.01 µM [2]: -24%

COc1cc(Nc2nc(N)c(-c3nc(-c4cc(NC(=O)/C=C/C5CC[C@H]6C=C[C@@H]5C6)ccc4C)no3)s2)cc(OC)c1OC (stereo partly drawn)
inhibition at 0.001 µM [2]: -12% | inhibition at 0.01 µM [2]: 25%

CCC(C(=O)Nc1ccc(C)c(-c2noc(-c3sc(Nc4cc(OC)c(OC)c(OC)c4)nc3N)n2)c1)c1ccccc1C (stereo not drawn)
inhibition at 0.001 µM [2]: -14% | inhibition at 0.01 µM [2]: 13%

COc1cc(Nc2nc(N)c(-c3nc(-c4cc(NC(=O)C[C@@H]5OC(C)(C)OC5=O)ccc4C)no3)s2)cc(OC)c1OC
inhibition at 0.001 µM [2]: -2% | inhibition at 0.01 µM [2]: 3%

COc1cc(Nc2nc(N)c(-c3nc(-c4cc(NC(=O)c5ccc(C(C)(C)C)o5)ccc4C)no3)s2)cc(OC)c1OC
inhibition at 0.001 µM [2]: -9% | inhibition at 0.01 µM [2]: 48%

COc1cc(Nc2nc(N)c(-c3nc(-c4cc(NC(=O)/C=C(\C)c5ccccc5C)ccc4C)no3)s2)cc(OC)c1OC
inhibition at 0.001 µM [2]: -27% | inhibition at 0.01 µM [2]: 8%

COc1cc(Nc2nc(N)c(-c3nc(-c4cc(NC(=O)c5ccc(C(C)=O)s5)ccc4C)no3)s2)cc(OC)c1OC
inhibition at 0.001 µM [2]: 35% | inhibition at 0.01 µM [2]: 93%

COc1cc(Nc2nc(N)c(-c3nc(-c4cc(NC(=O)C(C)OC=C(C)C)ccc4C)no3)s2)cc(OC)c1OC (stereo not drawn)
inhibition at 0.001 µM [2]: -21% | inhibition at 0.01 µM [2]: 11%

COc1cc(Nc2nc(N)c(-c3nc(-c4cc(NC(=O)/C=C/C(=O)NCC5CC5)ccc4C)no3)s2)cc(OC)c1OC
inhibition at 0.001 µM [2]: 39% | inhibition at 0.01 µM [2]: 5%

COc1ccc(C#N)c(C(=O)Nc2ccc(C)c(-c3noc(-c4sc(Nc5cc(OC)c(OC)c(OC)c5)nc4N)n3)c2)c1
inhibition at 0.001 µM [2]: 9% | inhibition at 0.01 µM [2]: 1%

COc1cc(Nc2nc(N)c(-c3nc(-c4cc(NC(=O)c5cc(C)cc(=O)o5)ccc4C)no3)s2)cc(OC)c1OC
inhibition at 0.001 µM [2]: -2% | inhibition at 0.01 µM [2]: 66%

COc1cc(Nc2nc(N)c(-c3nc(-c4cc(NC(=O)Cc5cn(C)cn5)ccc4C)no3)s2)cc(OC)c1OC
inhibition at 0.001 µM [2]: -7% | inhibition at 0.01 µM [2]: -14%

COc1cc(Nc2nc(N)c(-c3nc(-c4cc(NC(=O)CC(C)(C)NC(C)=O)ccc4C)no3)s2)cc(OC)c1OC
inhibition at 0.001 µM [2]: 2% | inhibition at 0.01 µM [2]: -11%

CCO/C(C)=C/C(=O)Nc1ccc(C)c(-c2noc(-c3sc(Nc4cc(OC)c(OC)c(OC)c4)nc3N)n2)c1
inhibition at 0.001 µM [2]: 21% | inhibition at 0.01 µM [2]: 78%

COc1cc(Nc2nc(N)c(-c3nc(-c4cc(NC(=O)[C@H]5C[C@@H](C)[C@@H](C)[C@H]5C)ccc4C)no3)s2)cc(OC)c1OC
inhibition at 0.001 µM [2]: -21% | inhibition at 0.01 µM [2]: 5%

C/C=C/C(=O)Nc1ccc(C)c(-c2noc(-c3sc(Nc4cc(OC)c(OC)c(OC)c4)nc3N)n2)c1
inhibition at 0.001 µM [2]: 9% | inhibition at 0.01 µM [2]: 65%

COc1cc(Nc2nc(N)c(-c3nc(-c4cc(NC(=O)C[C@H](C)c5ccccc5)ccc4C)no3)s2)cc(OC)c1OC
inhibition at 0.001 µM [2]: -30% | inhibition at 0.01 µM [2]: 24%

COc1cc(Nc2nc(N)c(-c3nc(-c4cc(NC(=O)CC5=CCCCC5)ccc4C)no3)s2)cc(OC)c1OC
inhibition at 0.001 µM [2]: -12% | inhibition at 0.01 µM [2]: 43%

COc1cc(Nc2nc(N)c(-c3nc(-c4cc(NC(=O)C(=O)C5=CCCCC5)ccc4C)no3)s2)cc(OC)c1OC
inhibition at 0.001 µM [2]: -36% | inhibition at 0.01 µM [2]: 11%

COc1cc(Nc2nc(N)c(-c3nc(-c4cc(NC(=O)C5CNC(=O)N5)ccc4C)no3)s2)cc(OC)c1OC (stereo not drawn)
inhibition at 0.001 µM [2]: -43% | inhibition at 0.01 µM [2]: -7%

COc1cc(Nc2nc(N)c(-c3nc(-c4cc(NC(=O)C5CC5C)ccc4C)no3)s2)cc(OC)c1OC (stereo not drawn)
inhibition at 0.001 µM [2]: 24% | inhibition at 0.01 µM [2]: 6%

COc1cc(Nc2nc(N)c(-c3nc(-c4cc(NC(=O)c5cc(F)ccc5C)ccc4C)no3)s2)cc(OC)c1OC
inhibition at 0.001 µM [2]: 29% | inhibition at 0.01 µM [2]: 64%

COc1cc(Nc2nc(N)c(-c3nc(-c4cc(NC(=O)C5CCSCN5C)ccc4C)no3)s2)cc(OC)c1OC (stereo not drawn)
inhibition at 0.001 µM [2]: 14% | inhibition at 0.01 µM [2]: 29%

COc1cc(Nc2nc(N)c(-c3nc(-c4cc(NC(=O)[C@H]5CCC[C@H]5O)ccc4C)no3)s2)cc(OC)c1OC
inhibition at 0.001 µM [2]: 45% | inhibition at 0.01 µM [2]: 9%

COc1cc(Nc2nc(N)c(-c3nc(-c4cc(NC(=O)C5CCC(=O)CC5)ccc4C)no3)s2)cc(OC)c1OC
inhibition at 0.001 µM [2]: 23% | inhibition at 0.01 µM [2]: -24%

COc1cc(Nc2nc(N)c(-c3nc(-c4cc(NC(=O)c5ccccc5C(C)C)ccc4C)no3)s2)cc(OC)c1OC
inhibition at 0.001 µM [2]: 6% | inhibition at 0.01 µM [2]: 11%

COc1cc(Nc2nc(N)c(-c3nc(-c4cc(NC(=O)[C@H](C)C(C)C)ccc4C)no3)s2)cc(OC)c1OC
inhibition at 0.001 µM [2]: -8% | inhibition at 0.01 µM [2]: -18%

CCn1nc(C)cc1C(=O)Nc1ccc(C)c(-c2noc(-c3sc(Nc4cc(OC)c(OC)c(OC)c4)nc3N)n2)c1
inhibition at 0.001 µM [2]: -4% | inhibition at 0.01 µM [2]: 44%

COc1cc(Nc2nc(N)c(-c3nc(-c4cc(NC(=O)[C@H](O)C(C)(C)C)ccc4C)no3)s2)cc(OC)c1OC
inhibition at 0.001 µM [2]: -34% | inhibition at 0.01 µM [2]: -11%

COc1cc(Nc2nc(N)c(-c3nc(-c4cc(NC(=O)C5CC(=O)N(C)C5)ccc4C)no3)s2)cc(OC)c1OC (stereo not drawn)
inhibition at 0.001 µM [2]: 16% | inhibition at 0.01 µM [2]: -18%

COc1cc(Nc2nc(N)c(-c3nc(-c4cc(NC(=O)[C@@H](OC)c5ccccc5)ccc4C)no3)s2)cc(OC)c1OC
inhibition at 0.001 µM [2]: -11% | inhibition at 0.01 µM [2]: 63%

COc1ccccc1/C=C/C(=O)Nc1ccc(C)c(-c2noc(-c3sc(Nc4cc(OC)c(OC)c(OC)c4)nc3N)n2)c1
inhibition at 0.001 µM [2]: 13% | inhibition at 0.01 µM [2]: 31%

COc1cc(Nc2nc(N)c(-c3nc(-c4cc(NC(=O)C5CC6C=CCC(C6)C5)ccc4C)no3)s2)cc(OC)c1OC (stereo not drawn)
inhibition at 0.001 µM [2]: 18% | inhibition at 0.01 µM [2]: 18%

COc1cc(Nc2nc(N)c(-c3nc(-c4cc(NC(=O)C5CCC6CCC(O)CC5C6)ccc4C)no3)s2)cc(OC)c1OC (stereo not drawn)
inhibition at 0.001 µM [2]: 10% | inhibition at 0.01 µM [2]: 11%

Source: US6620828B2, “Thiazole compounds and pharmaceutical compositions for inhibiting protein kinases and methods for their use” (Agouron Pharmaceuticals, Inc., priority 1999, dated 2003)
